From US20250326755A1, “CYCLIC QUATERNARY AMMONIUM SALT COMPOUND, AND PREPARATION METHOD THEREFOR AND USE THEREOF” (YICHANG HUMANWELL PHARMACEUTICAL CO., LTD., priority 2022, published 2025)
Read-outs that look alike come from different tables or passages of the source.

What was measured:
sciatic nerve of the rat = assay type: in vivo, SD rats
Description: The experimental methods described in the following test examples were standard procedures unless otherwise specified. All experimental animals used in the following test examples were SD rats purchased from Hunan Slac Jingda Experimental Animal Co., Ltd. Other test materials, unless stated otherwise, were purchased from conventional biochemical reagent suppliers.
The compounds listed in Table 1 and levobupivacaine hydrochloride (positive control) were administered to three groups of rats fully acclimated to the experimental environment, with one rat per group.
Solution Preparation: 2 mg/ml Levobupivacaine Hydrochloride Injection: 2.670 ml of 7.5 mg/ml levobupivacaine hydrochloride injection (Batch No. 92S0702) was pipetted into a 10 ml volumetric flask. 0.9% NaCl solution was added until the meniscus was level with the calibration line, and the solution was inverted and mixed thoroughly, to prepare 2 mg/ml levobupivacaine hydrochloride injection. 2 mg/ml Example Compound Solution: 6.6 mg of the example compound was accurately weighed and dissolved in 3.3 ml of 0.9% NaCl solution to prepare a 2 mg/ml example compound solution.
Both the positive control and the example compound were administered to each rat at 2 mg/ml, with an administration volume of 5 ml/kg, in a single injection near the sciatic nerve of the rat. After the administration, the rat was placed on a preheated hot plate (50±0.1° C.) of an intelligent hot plate instrument. […] The maximum thermal latency was controlled at 60 s. […] Any urine or feces on the hot plate was promptly cleaned and dried before subsequent tests.
Thermal latency results were expressed as the maximum proportional effect (MPE), calculated using the following formula.
Wherein: B represented the basal thermal latency of the rats; P was the maximum thermal latency C was the observed thermal latency at the detection time point.
Measurements were considered invalid if the MPE was less than 50% of the maximum proportional effect. If two consecutive measurements yielded an MPE of less than […], the experiment was terminated.

[1] = tested on: rat subcutaneous infiltration model; test: Local anesthetic effect by subcutaneous infiltration, Von Frey needle stimulation of back skin; assay type: in vivo, SD rats; conditions: 1 mg/ml, 0.5 mL subcutaneous injection on the back, 10 rats
Description: After shaving and disinfecting the backs of SD rats (half male and half female) weighing 190-210 grams, a circle with a diameter of approximately 1.5 cm was drawn on one side of the exposed skin. 0.5 mL of a solution containing the drug was subcutaneously injected into the skin in the center. The solution, using physiological saline as the solvent, contained either 2 mg/ml bupivacaine hydrochloride or 1 mg/ml concentration of the compounds listed in Table 2 of the present application. Each group consisted of 10 rats. A Von Frey fiber with a 100-gram force was attached to a needle for local skin stimulation. One minute after drug administration, the rat's response to the stimulus was measured. Testing was conducted at 6 different points within the marked area of drug administration. Skin contraction, avoidance, and other behaviors following stimulation were observed and recorded. Three points in the center and three points around the circle were stimulated, and the number of skin contraction and avoidance behaviors was recorded as N6. […] Each compound was tested on 10 rats.

[2] = 2 mg/ml, 5 ml/kg, single injection near the sciatic nerve of the rat, hot plate 50±0.1° C.

Structure (SMILES)	the rat died, time after administration (sciatic nerve of the rat; 2 mg/ml, 5 ml/kg, single injection near the sciatic nerve)	Duration/h (sciatic nerve of the rat; rat, in vivo)	Onset Time/min (sciatic nerve of the rat; rat, in vivo)	Duration/h [1] [h]	Onset Time/min [1] [min]	Duration/h (sciatic nerve of the rat; [2]) [h]	Onset Time/min (sciatic nerve of the rat; [2])
CCCC[N+]1(CCOCCOc2ccccc2)CCCC[C@H]1C(=O)Nc1c(C)cccc1C (stereo partly drawn) [Comparative Example 1, (2S)-1-Butyl-2-((2,6-dimethylphenyl)carbamoyl)-1-(2-(2-phenoxyethoxy)ethyl)piperidine bromide, reference compound]	1 (the rat died 4 h	1 (the rat died 4 h	2 min	–	–	–	–
CCCC[N+]1(CCCCNc2ccccc2)CCCC[C@H]1C(=O)Nc1c(C)cccc1C (stereo partly drawn) [Compound of Example 1, (2S)-1-Butyl-2-((2,6-dimethylphenyl)carbamoyl)-1-(4-(phenylamino)butyl)piperidine bromide]	–	24 to 48 h	1 min	48 to 72	1	–	–
CCCC[N+]1(CCCCNc2ccc(C)cc2)CCCC[C@H]1C(=O)Nc1c(C)cccc1C (stereo partly drawn) [Compound of Example 2, (2S)-1-Butyl-2-((2,6-dimethylphenyl)carbamoyl)-1-(4-(p-toluidino)butyl)piperidine bromide]	–	–	–	72 to 96	1	48 to 72	1 min
CCCC[N+]1(CCCCOc2ccccc2)CCCC[C@H]1C(=O)Nc1c(C)cccc1C (stereo partly drawn) [Compound of Example 4, (2S)-1-Butyl-2-((2,6-dimethylphenyl)carbamoyl)-1-(4-(phenoxy)butyl)piperidine bromide]	–	48 to 72 h	1 min	72 to 96	1	–	–
CCCC[N+]1(CCCCOc2cc(F)ccc2N)CCCC[C@H]1C(=O)Nc1c(C)cccc1C (stereo partly drawn) [Compound of Example 6, (2S)-1-(4-(2-amino-5-fluorophenoxy)butyl)-1-butyl-2-((2,6-dimethylphenyl)carbamoyl) piperidine bromide]	–	–	–	48 to 72	1	24 to 48	1 min
CCCC[N+]1(CCCCCNc2ccccc2)CCCC[C@H]1C(=O)Nc1c(C)cccc1C (stereo partly drawn) [Compound of Example 7, (2S)-1-Butyl-2-((2,6-dimethylphenyl)carbamoyl)-1-(5-(phenylamino)pentyl)piperidine bromide]	–	24 to 48 h	2 min	48 to 72	2	–	–
CCCC[N+]1(CCCCCN(C)c2ccccc2)CCCC[C@H]1C(=O)Nc1c(C)cccc1C (stereo partly drawn) [Compound of Example 8, (2S)-1-Butyl-2-((2,6-dimethylphenyl)carbamoyl)-1-(5-(methyl(phenyl)amino)pentyl)piperidine bromide]	–	–	–	48 to 72	1	24 to 48	1 min
CCCC[N+]1(CCCCCNc2ccc(C)cc2)CCCC[C@H]1C(=O)Nc1c(C)cccc1C (stereo partly drawn) [Compound of Example 9, (2S)-1-Butyl-2-((2,6-dimethylphenyl)carbamoyl)-1-(5-(p-toluylamino)pentyl)piperidine bromide]	–	–	–	48 to 72	1	24 to 48	1 min
CCCC[N+]1(CCCCCNc2ccc(F)cc2)CCCC[C@H]1C(=O)Nc1c(C)cccc1C (stereo partly drawn) [Compound of Example 10, (2S)-1-Butyl-2-((2,6-dimethylphenyl)carbamoyl)-1-(5-(p-fluorophenylamino)pentyl)piperidine bromide]	–	–	–	48 to 72	2	–	2 min
CCCC[N+]1(CCCCNc2c(C)cc(C)cc2C)CCCC[C@H]1C(=O)Nc1c(C)cccc1C (stereo partly drawn) [Compound of Example 19, (2S)-1-Butyl-2-((2,6-dimethylphenyl)carbamoyl)-1-(4-(symmetricaltrimethylamino)butyl)piperidine bromide]	–	–	–	–	–	2 to 18	2 min
CCCC[N+]1(CCCCNc2ccc(Cl)cc2)CCCC[C@H]1C(=O)Nc1c(C)cccc1C (stereo partly drawn) [Compound of Example 20, (2S)-1-Butyl-1-(4-((4-chlorophenyl)amino)butyl)-2-((2,6-dimethylphenyl)carbamoyl)piperidine bromide]	–	24 to 48 h	1 min	–	–	–	–
CCCC[N+]1(CCCCNc2ccc(F)c(F)c2)CCCC[C@H]1C(=O)Nc1c(C)cccc1C.[Br-] (stereo partly drawn) [Compound of Example 21, (2S)-1-Butyl-1-(4-((3,4-difluorophenyl)amino)butyl)-2-((2,6-dimethylphenyl)carbamoyl) piperidine bromide]	–	–	–	–	–	19 to 24	1 min
CCCC[N+]1(CCCCOc2cc(C)ccc2C(C)C)CCCC[C@H]1C(=O)Nc1c(C)cccc1C (stereo partly drawn) [Compound of Example 23, (2S)-1-Butyl-2-((2,6-dimethylphenyl)carbamoyl)-1-(4-(2-isopropyl-5-methylphenoxy)butyl) piperidine bromide]	–	–	–	–	–	48 to 72	1 min
CCCC[N+]1(CCCCOc2cccc(C)c2)CCCC[C@@H]1C(=O)Nc1c(C)cccc1C.[Cl-] (stereo partly drawn) [Compound of Example 29, (2R)-1-Butyl-2-((2,6-dimethylphenyl)carbamoyl)-1-(4-(m-tolyloxy)butyl)piperidine chloride]	–	–	–	–	–	24 to 30	1 min
CCCC[N+]1(CCCOc2ccccc2)CCCC[C@H]1C(=O)Nc1c(C)cccc1C (stereo partly drawn) [Compound of Example 34, (2S)-1-Butyl-2-((2,6-dimethylphenyl)carbamoyl)-1-(3-phenoxypropyl)piperidine bromide]	–	0 h	No effect observed	–	–	–	–
CCCC[N+]1(CCCOc2cccc(C)c2)CCCC[C@H]1C(=O)Nc1c(C)cccc1C (stereo partly drawn) [Compound of Example 35, (2S)-1-Butyl-2-((2,6-dimethylphenyl)carbamoyl)-1-(3-(m-tolyloxy)propyl)piperidine bromide]	–	–	–	–	–	0	No effect observed
Cc1cccc(C)c1NC(=O)[C@@H]1CCCC[N+]1(CCCCOc1ccccc1)CC(C)C (stereo partly drawn) [Compound of Example 37, (2S)-1-(Isobutylmethyl)-2-((2,6-dimethylphenyl)carbamoyl)-1-(4-phenoxybutyl)piperidine bromide]	–	2 to 18 h	2 min	–	–	–	–
CCCC[N+]1(CCCCOc2cccc(C)c2)CCCC[C@H]1C(=O)Nc1ccccc1C (stereo partly drawn) [Compound of Example 41, (2S)-1-Butyl-2-(o-tolylcarbamoyl)-1-(4-(m-tolyloxy)butyl)piperidinebromide]	–	2 to 24 h	2 min	–	–	–	–
CCCC[N+]1(CCCCOc2cccc(C)c2)CCCC[C@H]1C(=O)Nc1c(CC)cccc1CC (stereo partly drawn) [Compound of Example 42, (2S)-1-Butyl-2-((2,6-diethylphenyl)carbamoyl)-1-(4-(m-tolyloxy)butyl)piperidine bromide]	–	2 to 24 h	2 min	–	–	–	–
CCCC[N+]1(CCCCOc2ccc3cc(C(C)=O)ccc3c2)CCCC[C@H]1C(=O)Nc1c(C)cccc1C (stereo partly drawn) [Compound of Example 43, (2S)-1-(4-((6-acetylnaphth-2-yl)oxy)butyl)-1-butyl-2-((2,6-dimethylphenyl)carbamoyl) piperidine bromide]	–	–	–	–	–	48 to 72	1 min
